Assay results from the supplement of paper PMC10307832.

How the values were obtained:
Experiment in all cases: relative viability (nuclei count vs DMSO), 5 days (fraction); higher = more cells survive
[1] = compound: CC1=C(C(=NN1)C)CC2=C(C3=C(S2)N(C(=O)N(C3=O)C)CC(C)C)C(=O)N4C[C@@H](CO4)O + CC(=O)Nc1cccc(-n2c(=O)n(C3CC3)c(=O)c3c(Nc4ccc(I)cc4F)n(C)c(=O)c(C)c32)c1 [Trametinib] (partner 0.02 µM)
Method in brief: (§1)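 Cells from lung cancer lines were seeded into 1536-well plates and, one day later, dosed by pin tool. Treatments were either a single drug or a fixed dose of an anchor drug with five library-drug doses (not always all listed) in √10 steps. After 5 days, nuclei were stained in a one-step fixation (final 0.05% Triton X-100, 1% formaldehyde, 1 ug/ml Hoechst) and counted on 4× images, and relative viability is the treated-to-vehicle nuclei ratio, as the median of duplicate plates.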

IDH-C35 + Pictilisib = compound: Cc1ccccc1C(C(=O)NC1CCCCC1)N(C(=O)Cn1ccnc1C)c1cccc(F)c1 [IDH-C35] + CS(=O)(=O)N1CCN(Cc2cc3nc(-c4cccc5[nH]ncc45)nc(N4CCOCC4)c3s2)CC1 [Pictilisib] (partner 1 µM)
Method in brief: as §1

[2] = compound: CC1=C(C(=NN1)C)CC2=C(C3=C(S2)N(C(=O)N(C3=O)C)CC(C)C)C(=O)N4C[C@@H](CO4)O + CCNC(=O)c1noc(-c2cc(C(C)C)c(O)cc2O)c1-c1ccc(CN2CCOCC2)cc1 [Luminespib] (partner 0.01 µM)
Method in brief: as §1

IDH-C35 + Olaparib = compound: Cc1ccccc1C(C(=O)NC1CCCCC1)N(C(=O)Cn1ccnc1C)c1cccc(F)c1 [IDH-C35] + O=C(c1cc(Cc2n[nH]c(=O)c3ccccc23)ccc1F)N1CCN(C(=O)C2CC2)CC1 [Olaparib] (partner 8 µM)
Method in brief: as §1

| Cell Line | relative viability ([1]; first compound 0.0025 µM) | relative viability ([1]; first compound 0.007906 µM) | relative viability ([1]; first compound 0.025 µM) | relative viability ([1]; first compound 0.07906 µM) | relative viability ([1]; first compound 0.25 µM) | relative viability (IDH-C35 + Pictilisib; first compound 0.08 µM) | relative viability (IDH-C35 + Pictilisib; first compound 0.253 µM) | relative viability (IDH-C35 + Pictilisib; first compound 0.8 µM) | relative viability (IDH-C35 + Pictilisib; first compound 2.53 µM) | relative viability (IDH-C35 + Pictilisib; first compound 8 µM) | relative viability ([2]; first compound 0.0025 µM) | relative viability ([2]; first compound 0.007906 µM) | relative viability ([2]; first compound 0.025 µM) | relative viability ([2]; first compound 0.07906 µM) | relative viability ([2]; first compound 0.25 µM) | relative viability (IDH-C35 + Olaparib; first compound 0.08 µM) | relative viability (IDH-C35 + Olaparib; first compound 0.253 µM) | relative viability (IDH-C35 + Olaparib; first compound 0.8 µM) | relative viability (IDH-C35 + Olaparib; first compound 2.53 µM) | relative viability (IDH-C35 + Olaparib; first compound 8 µM) |
| --- | --- | --- | --- | --- | --- | --- | --- | --- | --- | --- | --- | --- | --- | --- | --- | --- | --- | --- | --- | --- |
| 201T | 0.715 | 0.708 | 0.713 | 0.739 | 0.694 | 0.651 | 0.731 | 0.634 | 0.661 | 0.676 | 1.04 | 1.1 | 1.05 | 1.04 | 1.05 | 0.762 | 0.824 | 0.799 | 0.81 | 0.841 |
| A549 |  |  |  |  |  | 0.532 | 0.504 | 0.595 | 0.472 | 0.401 |  |  |  |  |  | 0.447 | 0.346 | 0.268 | 0.168 | 0.112 |
| A-427 | 0.748 | 0.754 | 0.809 | 0.754 | 0.763 | 0.621 | 0.801 | 0.615 | 0.466 | 0.791 | 0.949 | 1.19 | 0.921 | 1.03 | 0.957 | 0.698 | 0.637 | 0.732 | 0.742 | 0.77 |
| ABC-1 |  |  |  |  |  | 0.675 | 0.667 | 0.617 | 0.984 | 0.908 |  | 0.606 |  | 0.349 | 0.531 | 0.668 | 1.04 | 0.77 | 0.819 | 0.906 |
| BEN | 0.955 | 0.927 | 0.922 | 0.862 | 0.826 | 0.545 | 0.568 | 0.54 | 0.54 | 0.505 | 0.235 | 0.383 | 0.242 | 0.335 | 0.325 | 1.06 | 1.11 | 1.03 | 0.952 | 0.995 |
| CAL-12T | 0.402 | 0.464 | 0.372 | 0.379 | 0.405 | 0.347 | 0.429 | 0.559 | 0.339 | 0.608 | 0.393 | 0.895 | 0.315 | 0.303 | 0.404 | 0.761 | 0.73 | 0.629 | 0.747 | 0.701 |
| COR-L23 | 0.662 | 0.74 | 0.452 | 0.547 | 0.712 | 0.85 | 0.769 | 0.833 | 0.79 | 0.833 | 0.756 | 0.744 | 0.666 | 0.549 | 0.765 | 0.332 | 0.391 | 0.317 | 0.31 | 0.349 |
| COR-L 105 | 0.48 | 0.443 | 0.511 | 0.466 | 0.406 | 0.442 | 0.477 | 0.354 | 0.383 | 0.392 | 0.739 | 0.807 | 0.533 | 0.638 | 0.617 | 0.606 | 0.681 | 0.713 | 0.614 | 0.714 |
| Calu-6 |  |  |  |  |  | 0.875 | 0.895 | 0.881 | 0.877 | 0.898 |  |  |  |  |  | 0.57 | 0.563 | 0.609 | 0.558 | 0.571 |
